Results published in US11047004B2, “Thiolated nucleotide analogues for nucleic acid synthesis” (LIFE TECHNOLOGIES CORPORATION, priority 2014, dated 2021).

Experiments:
[1] = target: calf intestinal phosphatase (CIP) (Bos taurus, UniProt P19111); assay: Phosphatase resistance: calf intestinal phosphatase (CIP) pre-treatment, then polymerase extension read-out; type: biochemical; conditions: 10 u/μL CIP, 37° C., 20 min, read-out by polymerase incorporation fluorescence (FIG. 4)
Procedure: As an example of this resistant, representative results from an exemplary experiment are depicted in FIG. 4. […] Phosphatase-mediated hydrolysis is reflected as a non-increasing level of fluorescence, whereas phosphatase resistance is reflected as an increase in normalized fluorescence intensity.
Two solutions were prepared as follows in 20 mM Tris HCl, pH 7.5, 20 mM NaCl, 10 mM MgCl2: (A) 80 μM of TTP, and (B) 200 μM of γ-S-TTP.
To both solution was added 1.5 μL of 10 u/μL of calf intestinal phosphatase (CIP), and the solutions were incubated at 37° C. for 20 min. The phosphatase was then removed by passing the solutions through a 10,000 molecular weight cut-off ultrafiltration membrane. The resulting solutions were then used for the polymerase extension reactions.
(§1) A solution was prepared in the same buffer as above containing 250 nM of the hairpin oligonucleotide, 16 μM of a short oligonucleotide (5′-CCCCCC-3′, acting as a signal amplifier), and 2 nM of Bst polymerase. Then 50 μL aliquots of this solution were placed in individual wells of a microtiter plate. In separate wells of the same plate were placed 50 μL aliquots of the CIP-treated solutions from above, as well as identical solutions that had not been treated with CIP. The plate was equilibrated at 37° C. in a fluorescence microplate reader, and then the dNTP solutions were mixed with the solutions of polymerase and fluorogenic hairpin oligonucleotide. The polymerase catalyzed incorporation reactions were followed by recording the fluorescence intensity changes using 490 nm for excitation and 525 nm for the emission. When a polymerase reaction occurred, an increase in the fluorescence intensity over time was detected (see FIG. 4). There was no change in fluorescence when no nucleotide incorporation reaction occurred (see FIG. 4).
A treatment of synthetically prepared γ-S-TTP with CIP can be used to remove any traces of contaminating dTTP that may be present in the preparation of γ-S-TTP.

Bst polymerase = Bst polymerase (Geobacillus stearothermophilus, UniProt P52026); assay: Polymerase extension assay with fluorescein-labeled hairpin oligonucleotide (fluorescence increase on incorporation); type: biochemical, Bacillus stearothermophilus; conditions: 2 nM Bst polymerase, 250 nM hairpin oligonucleotide, 37° C., ex 490 nm / em 525 nm; for polymerase incorporation reaction (fluorescence increase), CIP-treated nucleotide solution: nucleotide pre-treated with CIP
Sequence of Bst polymerase (P52026 other isoform, or with tags, fused parts or gaps with the stated changes): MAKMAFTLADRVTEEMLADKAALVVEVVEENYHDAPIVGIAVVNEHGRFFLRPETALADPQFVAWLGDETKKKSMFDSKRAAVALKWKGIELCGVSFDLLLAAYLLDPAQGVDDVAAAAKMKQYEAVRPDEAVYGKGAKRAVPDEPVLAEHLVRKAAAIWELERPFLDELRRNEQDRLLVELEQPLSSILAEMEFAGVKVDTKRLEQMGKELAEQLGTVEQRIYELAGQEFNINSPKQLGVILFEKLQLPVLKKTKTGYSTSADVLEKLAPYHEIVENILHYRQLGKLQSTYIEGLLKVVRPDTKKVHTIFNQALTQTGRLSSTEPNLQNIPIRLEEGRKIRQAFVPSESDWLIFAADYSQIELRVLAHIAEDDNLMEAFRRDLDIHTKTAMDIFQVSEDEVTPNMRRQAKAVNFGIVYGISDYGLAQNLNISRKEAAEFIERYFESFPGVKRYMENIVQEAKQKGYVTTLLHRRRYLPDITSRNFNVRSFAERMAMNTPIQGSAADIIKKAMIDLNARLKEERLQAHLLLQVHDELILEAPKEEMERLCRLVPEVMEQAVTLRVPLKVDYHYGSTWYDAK
From the text: For the polymerase extension assays, a fluorescein-labeled oligonucleotide substrate was designed, and used in an assay to detect nucleotide incorporation. The labeled oligonucleotide is a hairpin-type oligonucleotide with a T-fluorescein residue located at the third position from the 3′ end. The 5′ end of the labeled oligonucleotide is a single stranded sequence 3′-AGGGGGG-5′. Thus, the first nucleotide to be inserted by a polymerase onto the 3′ end of the substrate is a TTP. The 5′ and 3′ ends of the hairpin oligonucleotide is shown below. A fluorescein is attached to the T residue, which is underlined and bolded: • TGC 3′ • […] 5′ (SEQ ID NO:83)
Without wishing to be bound by theory, it is postulated that when the third base from the 3′ end is labeled with a fluorphore (in this case the labeled nucleotide is a T), and when the 3′ terminal base is a cytosine or guanosine, then the fluorphore is in a stacked position with the 3′ terminal base, resulting in quenching the fluorescence from the fluorphore. When a thymidine is incorporated at the terminal 3′ end (e.g., via polymerase-mediated nucleotide incorporation), the fluorphore is un-quenched. This assay can be performed with the hairpin molecule described herein, or with two annealed single-strands that mimic the linear ends of this hairpin molecule.
as §1, with “Then 50 μL aliquots of this solution were placed in individual wells of a microtiter plate. In separate wells of the same plate were placed 50 μL aliquots of the CIP-treated solutions from above, as well as identical solutions that had not been treated with CIP.” left out

[2] = free amino acid in solution; cited from earlier work

Sequence of calf intestinal phosphatase (CIP) (P19111 20-506 limits assumed): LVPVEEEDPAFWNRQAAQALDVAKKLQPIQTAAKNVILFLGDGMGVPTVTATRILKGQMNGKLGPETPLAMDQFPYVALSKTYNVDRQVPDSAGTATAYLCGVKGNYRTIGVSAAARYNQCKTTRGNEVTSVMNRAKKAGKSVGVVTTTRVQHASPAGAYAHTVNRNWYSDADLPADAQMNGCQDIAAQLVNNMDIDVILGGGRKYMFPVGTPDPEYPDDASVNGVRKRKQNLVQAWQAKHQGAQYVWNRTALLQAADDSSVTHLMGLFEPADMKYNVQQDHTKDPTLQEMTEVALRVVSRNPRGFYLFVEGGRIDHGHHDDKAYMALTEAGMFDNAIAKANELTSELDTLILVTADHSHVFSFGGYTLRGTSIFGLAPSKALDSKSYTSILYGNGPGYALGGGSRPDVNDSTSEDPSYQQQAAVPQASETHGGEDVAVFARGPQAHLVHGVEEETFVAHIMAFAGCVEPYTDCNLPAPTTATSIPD

Compound | pKa α-carboxylic acid [2] | pKa α-amino [2] | also measured
Cc1cn([C@H]2C[C@H](O)[C@@H](COP(=O)(O)OP(=O)(O)OP(O)(O)=S)O2)c(=O)[nH]c1=O [γ-S-TTP, γ-S-thymidinyl-triphosphate] |  |  | resistance to degradation by calf intestinal (alkaline) phosphatase [1]: resistant to the alkaline phosphatase activity; resistance to degradation by calf intestinal (alkaline) phosphatase ([1]; listed as gamma STTP): showed a resistance to phosphatase; polymerase incorporation reaction (fluorescence increase), non-treated nucleotide solution (Bst polymerase; nucleotide not treated with CIP): polymerase reactions can be detected; polymerase incorporation reaction (fluorescence increase), CIP-treated nucleotide solution (Bst polymerase): polymerase reactions can be detected
CC(C)[C@H](N)C(=O)O [Valine] | 2.29 |  | 
N[C@@H](CC(=O)O)C(=O)O [Aspartic Acid] |  | 9.82 | 
Cc1cn([C@H]2C[C@H](O)[C@@H](COP(=O)(O)OP(=O)(O)OP(=O)(O)O)O2)c(=O)[nH]c1=O [TTP, thymidinyl-triphosphate, reference compound] |  |  | resistance to degradation by calf intestinal (alkaline) phosphatase [1]: not reflected; polymerase incorporation reaction (fluorescence increase), CIP-treated nucleotide solution (Bst polymerase): no incorporation reaction takes place
N[C@@H](Cc1ccccc1)C(=O)O [Phenylalanine] | 2.58 | 9.24 | 
CC[C@H](C)[C@H](N)C(=O)O [Isoleucine] |  | 9.76 | 
C[C@H](N)C(=O)O [Alanine] | 2.35 |  | 
